Test results reported in ChEMBL document CHEMBL6092201, “Discovery of cyanoguanidine derivatives as biased μ-opioid receptor agonists” (2024).
Active and inactive are the calls of the source.

Key:
Type in all cases: functional
[1] = biological target: Mu-type opioid receptor (Homo sapiens) (UniProt P35372); experiment: Agonist activity at MOR (unknown origin) assessed as beta-arrestin2 recruitment at 0.1 uM incubated for 90 to 180 mins by chemiluminescence based microplate reader assay relative to control; details: time 90-180 min
Sequence of Mu-type opioid receptor (Homo sapiens) (P35372 whole entry): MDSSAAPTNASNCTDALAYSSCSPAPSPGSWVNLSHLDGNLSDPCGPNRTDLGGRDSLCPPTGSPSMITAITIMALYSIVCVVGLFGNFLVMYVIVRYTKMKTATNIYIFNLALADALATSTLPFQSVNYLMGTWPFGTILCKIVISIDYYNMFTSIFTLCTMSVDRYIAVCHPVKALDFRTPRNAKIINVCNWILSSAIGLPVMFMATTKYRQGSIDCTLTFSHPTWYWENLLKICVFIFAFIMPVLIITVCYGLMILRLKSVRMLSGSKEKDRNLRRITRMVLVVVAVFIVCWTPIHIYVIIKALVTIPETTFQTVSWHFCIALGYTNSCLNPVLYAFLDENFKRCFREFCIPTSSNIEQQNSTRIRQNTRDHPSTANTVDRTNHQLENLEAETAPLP

[2] = biological target: Mu-type opioid receptor (Homo sapiens) (UniProt P35372); experiment: Agonist activity at MOR (unknown origin) assessed as cAMP accumulation at 50 nM relative to control
[3] = biological target: Mu-type opioid receptor (Homo sapiens) (UniProt P35372); experiment: Agonist activity at MOR (unknown origin) assessed as beta-arrestin2 recruitment at 10 uM incubated for 90 to 180 mins by chemiluminescence based microplate reader assay relative to control; details: time 90-180 min
[4] = biological target: Mu-type opioid receptor (Homo sapiens) (UniProt P35372); experiment: Agonist activity at MOR (unknown origin) assessed as cAMP accumulation at 0.5 nM relative to control
[5] = biological target: Mu-type opioid receptor (Homo sapiens) (UniProt P35372); experiment: Agonist activity at MOR (unknown origin) assessed as beta-arrestin2 recruitment at 1 uM incubated for 90 to 180 mins by chemiluminescence based microplate reader assay relative to control; details: time 90-180 min
Mus musculus = experiment: Analgesic activity in Kunming mouse assessed as increase in pain threshold at 10 mg/kg, po (reference value: 0.13 +/- 5.20 sec)
[6] = biological target: Mu-type opioid receptor (Homo sapiens) (UniProt P35372); experiment: Agonist activity at MOR (unknown origin) assessed as beta-arrestin2 recruitment at 50 uM incubated for 90 to 180 mins by chemiluminescence based microplate reader assay; details: time 90-180 min

Compound	Activity [1] [%]	Activity [2] [%]	Activity [3] [%]	Activity [4] [%]	Activity [5] [%]	Time (Mus musculus) [s]	Activity [6]
CC(Cc1cccs1)N/C(=N\C#N)NC[C@H](Cc1ccccc1)N(C)C (stereo partly specified)	-0.9	37.2	2	12.4	-0.4	21.8	inactive
COc1ccc(CN/C(=N\C#N)NC[C@H](Cc2ccccc2)N(C)C)cc1	-0.9	14.4	0.9	2.9	-0.6	14.34	inactive
CN1CC[C@]23c4c5ccc(O)c4O[C@H]2[C@@H](O)C=C[C@H]3[C@H]1C5 [MORPHINE]	–	–	–	–	–	22.79	–
CC(Cc1c[nH]c2ccccc12)N/C(=N\C#N)NC[C@H](Cc1ccccc1)N(C)C (stereo partly specified)	-0.9	17.7	-0.7	11.1	-0.9	11.63	inactive
COc1ccccc1N/C(=N\C#N)NC[C@H](Cc1ccc(O)cc1)N(C)C	-1.2	32.9	-1	25.5	-1	7.76	inactive
CN(C)[C@H](CN/C(=N/C#N)Nc1ccccc1)Cc1ccccc1	-0.5	23.1	15.9	2.1	1.9	20.94	inactive
CN(C)[C@H](CN/C(=N/C#N)NCCc1ccc(O)cc1)Cc1ccccc1	-0.9	19.3	-0.9	13.2	-0.7	6.82	inactive
CN(C)[C@H](CN/C(=N/C#N)NCCc1ccccc1)Cc1ccccc1	-0.9	28	2	25.9	-0.2	19.93	inactive
CC(Cc1ccncc1)N/C(=N\C#N)NC[C@H](Cc1ccccc1)N(C)C (stereo partly specified)	-1.1	8.6	-0.5	2.9	-0.9	12.52	inactive
CC(Cc1ccco1)N/C(=N\C#N)NC[C@H](Cc1ccccc1)N(C)C (stereo partly specified)	-1.3	15.6	-0.8	9.5	-1	7.57	inactive
COc1ccccc1N/C(=N\C#N)NC[C@H](Cc1ccccc1)N(C)C	-0.8	36.9	15.2	9.5	2	7.34	inactive
COc1cccc(CCN/C(=N\C#N)NC[C@H](Cc2ccccc2)N(C)C)c1	-1	10.3	23	3.3	-0.6	12.47	inactive
COc1ccc2cc(CC(C)N/C(=N\C#N)NC[C@H](Cc3ccccc3)N(C)C)ccc2c1 (stereo partly specified)	-1	23.6	-1	15.2	-1	10.44	inactive
CN(C)[C@H](CN/C(=N/C#N)NCCc1cccc(F)c1)Cc1ccccc1	-0.7	14.4	4.8	7.4	-0.3	8.86	inactive
CC(Cc1cc[nH]n1)N/C(=N\C#N)NC[C@H](Cc1ccccc1)N(C)C (stereo partly specified)	-0.4	-15.2	-0.6	-2.5	-0.7	15.44	inactive
CC(Cc1cccnc1)N/C(=N\C#N)NC[C@H](Cc1ccccc1)N(C)C (stereo partly specified)	-1.1	9.5	-0.6	9.3	-0.9	15.75	inactive
COc1ccc(CN/C(=N\C#N)NC[C@H](Cc2ccc(O)cc2)N(C)C)cc1	-1	19.8	-0.9	18.5	-0.8	12.41	inactive
CC(Cc1ccsc1)N/C(=N\C#N)NC[C@H](Cc1ccccc1)N(C)C (stereo partly specified)	-1	9.1	1.9	-0.8	-0.6	22.76	inactive
CN(C)[C@H](CN/C(=N/C#N)NCCc1ccccc1)Cc1ccc(O)cc1	-0.9	4.1	-0.7	8.6	-0.7	6.89	inactive
CC(Cc1c[nH]cn1)N/C(=N\C#N)NC[C@H](Cc1ccccc1)N(C)C (stereo partly specified)	-0.5	0.8	2.2	-14.4	-0.1	11.38	inactive
CC(Cc1ccc[nH]1)N/C(=N\C#N)NC[C@H](Cc1ccccc1)N(C)C (stereo partly specified)	-1	24.3	7.9	5.8	-0.4	17.58	inactive
